The target of test [1] is T1, human synovial fluid PLA2 (Homo sapiens, UniProt P14555).
T1 construct: Purified human synovial fluid; from tissue; host or cells: human synovial fluid
T1 sequence (P14555 21-144): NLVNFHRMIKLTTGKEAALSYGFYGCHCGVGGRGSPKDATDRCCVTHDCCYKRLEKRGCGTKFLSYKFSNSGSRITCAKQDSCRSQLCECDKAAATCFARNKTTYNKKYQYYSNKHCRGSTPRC
Kind of test: in vitro isolated phospholipase A2 assay, human synovial fluid PLA2. In kind it is biochemical. The following applies: at 10 μM; + values given without explanation; read-out: % Inhibition HSF (human synovial fluid). As to the method: (§1) The compounds of the invention are tested in an in vitro isolated phospholipase A2 assay to determine the ability of the test compounds to inhibit the release of arachidonic acid from an arachidonic acid-containing substrate by the action of phospholipase A2 enzyme from human and non-human sources.
(§2) Into a 15 mL polypropylene tube are added the following:
(§3) ^3 H-AA E. coli substrate^1
(§4) Tris-HCl (0.5 M) pH 7.5^3
(§5) PLA2 25 Volume yielding 12%
(§6) 100 hydrolysis in 10 min.
(§7) *pre-incubate at room temperature 30 min prior to substrate addition.
(§8) ^6 Two human PLA2 enzymes are used: a) Semipurified human
(§9) platelet acid extract PLA2 (in 10 mM sodium acetate buffer, pH 4.5).
(§10) Remove protein precipitate by centrifugation at about 2200 rpm for 10
(§11) minutes. b) Purified human synovial fluid.
(§12) Incubate the 100 μL reaction mixture for 10 minutes at 37° C. in a shaking water bath. The reaction is terminated by the addition of 2 mL tetrahydrofuran, followed by vortexing. NH2 columns (100 μg/mL--Analytichem International) are conditioned with 0.5 mL tetrahydrofuran followed by 0.5 mL tetrahydrofuran/water (2 mL:0.1 mL, v/v).
(§13) The sample is loaded onto the columns and slowly drawn through them. The hydrolyzed arachidonic acid retained in the columns is eluted therefrom with 1 mL tetrahydrofuran/glacial acetic acid (2%). The arachidonic acid is transferred to scintillation vials and quantitated by β-counting analysis. A "total counts" sample is prepared by pipetting 25 μL ^3 H-arachidonate E. coli directly into a scintillation vial to which is added 1 mL tetrahydrofuran. 10 mL aquasol (scintillation cocktail) is added to all samples.

The target in another test is T2, human platelet PLA2 (Homo sapiens, UniProt P14555).
T2 construct: platelet acid extract PLA2; from tissue; host or cells: human platelets, semipurified acid extract
T2 sequence (P14555 21-144): T1 sequence (P14555 21-144)
Description: in vitro isolated phospholipase A2 assay, human platelet PLA2. In kind it is biochemical. The following applies: at 10 μM; + values given without explanation; read-out: % Inhibition HP (human platelet). On the procedure: as §1, §2, §3, §4, §5, §6, §7, §8, §9, §10, §11, §12, §13

The next test relates to cyclooxygenase (PGE2). Description: resident murine peritoneal macrophage assay, PGE2. In kind it is cell-based, mouse (Swiss Webster). The following applies: for inhibition at 0.5 µM / inhibition at 1 µM: read-out: PGE2 zymosan % Inhibition. As to the method:
(§14) The ability of the compounds of the invention to act as inhibitors of the enzymes 5-lipoxygenase and cyclooxygenase is measured in the resident murine peritoneal macrophage assay.
Resident peritoneal macrophages are collected from female Swiss Webster mice (49 days old, 20-25 gms, Buckshire) by lavaging with 7-8 ml Hanks Balanced Salt Solution (HBSS) without Ca^++ and Mg^++ (GIBCO). The lavage fluid from several mice is pooled and centrifuged at 4° C. for 10 minutes at 400 xg. The cell pellet is resuspended in Medium 199 (GIBCO) with HEPES buffer containing 100 μg/ml gentamicin. Two ml of the cell suspension (4×10^6 cells) are then plated on 35 mm culture dishes (Nunc).
A macrophage monolayer is established after a 1-1.5 hour incubation of the cells at 37° C. in an atmosphere of […] and 5% CO2. The monolayers are washed 2× with 2 ml HBDSS, containing Ca^++ and Mg^++ after which 2 ml Medium 199 supplemented with 10% freshly thawed heat-inactivated fetal bovine serum and 100 μg/ml gentamicin is added for an overnight incubation.
(§15) Residual serum and cellular debris are removed from the monolayers by washing 3× with 2 ml HBSS containing Ca^++ and Mg^++. Macrophages are preincubated for 5 minutes with 1 ml serum-free M199 containing 10 μl dimethyl sulfoxide (DMSO) vehicle or test compound prior to cell activation with zymosan ([…]) or arachidonic acid (AA) (2 μM). After 2 hours, the supernatants are removed and either assayed for LTC4 and PGE2 by radioimmunoassay (RIA) directly or stored at -20° C. In all cases, results are expressed as ng metabolite/4×10^6 cells.
(§16) Raw data (dpm) may be stored directly onto an "Autostart" tape using the HP85 in room C-096. The raw data are converted to ng metabolite/4-10^6cells using the standard curve by a "RIANAL" program (HP85) or a "NONLIN" program (HP9816). Results are then expressed as percent inhibition of zymosan induced, leukotriene or prostaglandin synthesis (control) using the equation: [formula]

The subject of the next test is 5-lipoxygenase (LTC4). Kind of test: resident murine peritoneal macrophage assay, LTC4. In kind it is cell-based, mouse (Swiss Webster). On the procedure:
as §14
Resident peritoneal macrophages are collected from female Swiss Webster mice (49 days old, 20-25 gms, Buckshire) by lavaging with 7-8 ml Hanks Balanced Salt Solution (HBSS) without Ca^++ and Mg^++ (GIBCO). The lavage fluid from several mice is pooled and centrifuged at 4° C. for 10 minutes at 400 xg.
as §15, §16

For a further test, the system named is TPA-induced ear edema. Kind of test: 12-o-tetradecanoylphorbol acetate (TPA)-induced murine ear edema assay. In kind it is in vivo, mouse (Swiss Webster). To be noted: TPA; topical, 200 μg, vehicle acetone. On the procedure:
The ability of the compounds of the invention to inhibit inflammatory responses is examined in the in vivo arachidonic acid (AA)/12-o-tetradecanoylphorbol acetate (TPA)-induced murine ear edema assay.
Swiss Webster female mice (Buckshire), approximately 8 weeks old are placed into plastic boxes in groups of six. Eight groups of mice receive AA topically on the right ear, and another 8 groups receive TPA topically on the right ear. AA and TPA are dissolved in acetone at concentrations of 100 mg/ml and 100 μg/ml respectively. The phlogistics are applied to the right ear by the means of an automatic pipet. Volumes of 10 μl are applied to the inner and outer surfaces of the ear. Each mouse receives either 2 mg/ear AA or 2 μg/ear TPA. The left ear (control) receives acetone delivered in the same manner. Topical and subcutaneous dosing regimens are as follows 1) drugs are given 30 minutes prior to AA treatment and 2) drugs are given 30 minutes after treatment with TPA.
Measurements are taken with Oditest calipers, 0-10 mm with 0.01 graduations. The right and left ears are measured after 1 hr AA-induced inflammation and 4 hours after TPA-induced inflammation.
The difference between right and left ear thickness is calculated and the significance is determined by a one way analysis of variance with Dunnett's comparisons to control (P=0.05). Drug effects are expressed as a percent change from control values: [formula]

Where [2] appears, read: Mus musculus, Peritoneal macrophage, zymosan stimulation.
Setting [3] is: zymosan stimulation, dose not given.
Where [4] appears, read: Mus musculus, Peritoneal macrophage, zymosan stimulation, 0.2 μM.

Read-outs that look alike come from different tables or passages of the source.

As usually defined, the inhibition is the relative decrease from the control value, in per cent. In the case of `O=C(CCCCCCCCCc1ccc(Cl)c(Cl)c1)C1=C(O)COC1=O` [Example 42, 4-Hydroxy-3-[10-(3,4-dichlorophenyl)-1-oxodecyl]-2(5H)-furanone], the values for the inhibition at 10 µM (in test [1]; on human platelet PLA2) were 22% and 6.6%, respectively. For the same compound, the inhibition at 0.1 µM was -8% in the test with cyclooxygenase (PGE2) (setting [2]) and 58% with 5-lipoxygenase (LTC4) (setting [2]). Further, the inhibition at 0.5 µM was 97% with cyclooxygenase (PGE2) (setting [2]) and 70% in the test with 5-lipoxygenase (LTC4) (setting [2]).
The term IC50 denotes the concentration at which inhibition is half-maximal. With `CCCCCCCC/C=C\CCCCCCCCNC(=O)OC(CCC(=O)C1=C(O)COC1=O)COC/C=C(\C)CCC=C(C)C` (centres unmarked) [Example 40], the inhibition at 10 µM worked out at 91% in test [1] and 96.5% on human platelet PLA2. The IC50 in the test with cyclooxygenase (PGE2) (Mus musculus, Peritoneal macrophage, zymosan stimulation, read-out: PGE2 zymosan IC50) worked out at 800 nM; in the test with 5-lipoxygenase (LTC4) (Mus musculus, Peritoneal macrophage, zymosan stimulation, read-out: LTC4 zymosan IC50), 800 nM. In addition, the “PGE2 zymosan % Inhibition” value in the test with cyclooxygenase (PGE2) (setting [3]) stood at 37%. Moreover, in the test on 5-lipoxygenase (LTC4) (setting [3]), the “LTC4 zymosan % Inhibition” value came to 87%.
For `CCCCCCNC(=O)OCC(CCC(=O)C1=C(O)COC1=O)OC(=O)NCCCCCC` (centres unmarked) [Example 30, Hexylcarbamic acid 5-(2,5-dihydro-4-hydroxy-2-oxo-3-furanyl)-5-oxo-1,2-pentanediyl ester], the inhibition at 10 µM is 21% in test [1] and 37.4% on human platelet PLA2. The results for the inhibition at 1 µM with cyclooxygenase (PGE2) (setting [2]) and with 5-lipoxygenase (LTC4) (setting [2]) were 45.8% and 41.5%, respectively.
On to `O=C(CCCCCCCCCc1ccc(Cl)cc1)C1=C(O)COC1=O` [Example 41, 4-Hydroxy-3-[10-(4-chlorophenyl)-1-oxodecyl]-2(5H)-furanone], for which the inhibition at 10 µM in test [1] stood at 13%; on human platelet PLA2, 12%. Moreover, the inhibition at 0.1 µM with cyclooxygenase (PGE2) (setting [2]) amounted to 29%; in the test on 5-lipoxygenase (LTC4) (setting [2]), 61%. Moreover, the inhibition at 0.5 µM was 97% with cyclooxygenase (PGE2) (setting [2]) and 90% in the test on 5-lipoxygenase (LTC4) (setting [2]).
`CC(C)(C)c1ccc(CCCCCCCCCC(=O)C2=C(O)COC2=O)cc1` [Example 43, 4-Hydroxy-3-[10-[4-(1,1-dimethylethyl)phenyl]1-oxodecyl]-2(5H)-furanone]: the inhibition at 10 µM in test [1] was determined as 44.4%; at human platelet PLA2 it was 29.7%. Besides, the inhibition at 0.1 µM in the test on cyclooxygenase (PGE2) (setting [2]) amounted to 54%; with 5-lipoxygenase (LTC4) (setting [2]), 71%. Further, the inhibition at 0.5 µM in the test on cyclooxygenase (PGE2) (setting [2]) came out at 92%; in the test with 5-lipoxygenase (LTC4) (setting [2]) it was 96%.
Regarding `CCCC[C@@H]1C[C@@H]1CCCCCCCC(=O)C1=C(O)COC1=O` (relative stereo) [Example 54, 4-Hydroxy-3-[(Z)-8-(2-butylcyclopropyl)-1-oxooctyl]-2(5H)-furanone], the inhibition at 0.1 µM with cyclooxygenase (PGE2) (setting [2]) stood at 49.5%; in the test on 5-lipoxygenase (LTC4) (setting [2]), 59.3%.
In the case of `CCCCCCCC[C@@H]1C[C@@H]1CCCCCCCC(=O)C1=C(O)COC1=O` (relative stereo) [Example 19, (Z)-4-Hydroxy-3-(1-oxo-8-(2'-octylcyclopropyl)octanyl)-2(5H)-furanone], the inhibition at 10 µM in test [1] was 88%; at human platelet PLA2, 83%. Also, the inhibition at 0.5 µM in the test on cyclooxygenase (PGE2) (setting [2]) is 68.4%; in the test with 5-lipoxygenase (LTC4) (setting [2]) it was 37.5%.
Take `CCCCCCCC/C=C\CCCCCCCC(=O)OCCCC(=O)C1=C(O)COC1=O` [Example 38, (Z)-9-Octadecanoic acid 4-(2,5-dihydro-4-hydroxy-2-oxo-3-furanyl)-4-oxobutanoic ester]: the inhibition at 10 µM stood at 18.8% in test [1] and 80.9% on human platelet PLA2. The values for the inhibition at 1 µM in the test with cyclooxygenase (PGE2) (setting [2]) and with 5-lipoxygenase (LTC4) (setting [2]) were 75.8% and 46.4%, respectively. Besides, the “Topical % Inhibition at 200 μg” value in the test on TPA-induced ear edema came to 23%.
For `O=C(CCCCCCCCCc1ccc(Br)cc1)C1=C(O)COC1=O` [Example 44, 4-Hydroxy-3-[10-(4-bromophenyl)-1-oxodecyl]-2(5H)-furanone], the inhibition at 10 µM in test [1] stood at 37%; at human platelet PLA2 it was 16.1%. Moreover, the figures for the inhibition at 0.1 µM with cyclooxygenase (PGE2) (setting [2]) and with 5-lipoxygenase (LTC4) (setting [2]) were -20% and 58%, respectively. Also, the inhibition at 0.5 µM was found to be 88% in the test with cyclooxygenase (PGE2) (setting [2]) and 94% in the test with 5-lipoxygenase (LTC4) (setting [2]).
Turning to `CCCCCCCCCCC[C@@H]1C[C@@H]1CCCCC(=O)C1=C(O)COC1=O` (relative stereo) [Example 55], in the test on cyclooxygenase (PGE2) (setting [2]), the inhibition at 0.1 µM was 39.2% and the inhibition at 0.5 µM is 74.3%. Moreover, in the test on 5-lipoxygenase (LTC4) (setting [2]), the inhibition at 0.1 µM turned out to be 80.3% and the inhibition at 0.5 µM was 64.2%.
`O=C(CCCCCCCCCc1ccc(C(F)(F)F)cc1)C1=C(O)COC1=O` [Example 45, 4-Hydroxy-3[10-(4-trifluoromethyl)phenyl]-2(5H)-furanone]: the inhibition at 10 µM in test [1] was 55.6%; on human platelet PLA2, 63%. Moreover, the inhibition at 0.2 µM in the test with cyclooxygenase (PGE2) (setting [4]) was 45%; in the test with 5-lipoxygenase (LTC4) (setting [4]) it was 34.5%.
For the compound `O=C(CCCCOc1ccc(Cl)cc1)C1=C(O)CSC1=O` [Example 49, 4-Hydroxy-3-[5-(4-chlorophenoxy)-1-oxopentyl]-2(5H)-thiophenone], the inhibition at 10 µM in test [1] is 6.7%; on human platelet PLA2, 1.7%. Further, the inhibition at 0.5 µM in the test on cyclooxygenase (PGE2) (setting [2]) was -11.8%; with 5-lipoxygenase (LTC4) (setting [2]), -19.7%.
As to `CC(Cc1ccc(O)c(O)c1)C(C)Cc1ccc(O)c(O)c1` (centres unmarked) [NDGA, reference compound], the IC50 with cyclooxygenase (PGE2) (Mus musculus, Peritoneal macrophage, reference compounds, 95% confidence limits on next line, read-out: IC50 PGE2) came to 2150 nM; with 5-lipoxygenase (LTC4) (Mus musculus, Peritoneal macrophage, reference compounds, 95% confidence limits on next line, read-out: IC50 LTC4), […].

The record behind these values is patent US5242945A, “Tetronic and thiotetronic acid derivatives as phospholipase A2 inhibitors” (American Home Products Corporation, priority 1991, dated 1993).
